Test [1] concerns the target TrkA (histidine-tagged recombinant human TrkA, cytoplasmic domain) (Homo sapiens (Human), UniProt P04629). The experiment in a line: TrkA ELISA assay. In kind it is biochemical. As to conditions: Table 1, 500 μM ATP, read-out: TrkA Enzyme IC50. The method, then: An enzyme-linked immunosorbant assay (ELISA) was used to assess TrkA kinase activity in the presence of inhibitors. Immulon 4HBX 384-well microtiter plates (Thermo part #8755) were coated with a 0.025 mg/mL solution of poly (Glu, Ala, Tyr; 6:3:1; Sigma P3899). […] The assay buffer consisted of 25 mM MOPS pH 7.5, 0.005% (v/v) Triton X-100 and 5 mM MgCl2. The reaction mixture was removed from the plate by washing with PBS containing 0.1% (v/v) Tween 20. The phosphorylated reaction product was detected using 0.2 μg/mL of a phosphotyrosine specific monoclonal antibody (clone PY20) conjugated to horseradish peroxidase in conjunction with the TMB Peroxidase Substrate System (KPL). After the addition of 1M phosphoric acid, the chromogenic substrate color intensity was quantitated via absorbance at 450 nm.
A general note: In an ELISA, binding on a coated surface is turned into a signal by an enzyme label.

For test [2], the target named is Human Jak2 kinase domain (Homo sapiens (Human), UniProt O60674). Briefly: Jak2 inhibition assay (Omnia kinase assay). Format: biochemical. As to conditions: Table 1; >1000 nM when >50% inhibition not observed at 1000 nM; read-out: Jak2 Enzyme IC50. The source says: The assays described in Examples C, D, E and F for the determination of JAK1, JAK2, JAK3 and Tyk2 kinase activity, respectively, utilized the Omnia® Kinase fluorescence peptide substrate-based technology (Invitrogen). The specific components of the assay mixture are described in Examples C, D and E. […] Two-μL aliquots of these were transferred to a fresh plate for a ten-fold intermediate dilution with assay buffer. […] Human Jak2 kinase domain comprising amino acids 808-1132 was purchased from Invitrogen Corporation, Carlsbad, Calif.
Sequence of Human Jak2 kinase domain (O60674 808-1132): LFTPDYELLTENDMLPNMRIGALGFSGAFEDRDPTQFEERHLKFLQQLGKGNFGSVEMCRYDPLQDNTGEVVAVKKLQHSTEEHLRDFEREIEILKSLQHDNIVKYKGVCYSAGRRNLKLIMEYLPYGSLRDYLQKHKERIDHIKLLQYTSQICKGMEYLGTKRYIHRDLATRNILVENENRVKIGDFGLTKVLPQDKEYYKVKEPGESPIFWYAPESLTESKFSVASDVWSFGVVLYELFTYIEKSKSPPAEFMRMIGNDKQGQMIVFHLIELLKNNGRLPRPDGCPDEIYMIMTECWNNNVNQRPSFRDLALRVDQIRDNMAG

In US9796724B2, “Substituted pyrazolo[1,5-a]pyrimidine compounds as Trk kinase inhibitors” (Array BioPharma, Inc., priority 2009, dated 2017) one finds IC50 data, which are given here for four compounds.

pIC50: −log10 of the molar value. Where only a bound is given, the exact number is not on record here.

Sequence of TrkA (histidine-tagged recombinant human TrkA, cytoplasmic domain) (P04629 440-796): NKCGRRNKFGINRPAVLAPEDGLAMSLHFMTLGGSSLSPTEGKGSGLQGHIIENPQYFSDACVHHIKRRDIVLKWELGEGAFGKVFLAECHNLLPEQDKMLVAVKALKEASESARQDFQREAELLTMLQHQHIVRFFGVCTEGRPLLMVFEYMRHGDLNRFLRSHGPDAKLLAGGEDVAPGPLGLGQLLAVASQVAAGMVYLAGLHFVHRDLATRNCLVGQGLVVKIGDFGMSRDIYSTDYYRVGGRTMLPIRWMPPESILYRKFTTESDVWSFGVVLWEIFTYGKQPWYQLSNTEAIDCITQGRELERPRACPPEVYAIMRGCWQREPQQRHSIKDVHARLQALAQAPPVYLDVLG

What is called pIC50 is the negative decadic logarithm of the IC50, by convention in mol/L. In the case of `C[C@H](O)[C@H](CO)NC(=O)c1cnn2ccc(N3CCC[C@@H]3c3cc(F)ccc3F)nc12` [Example 175, 5-((R)-2-(2,5-difluorophenyl)pyrrolidin-1-yl)-N-((2S,3S)-1,3-dihydroxybutan-2-yl)pyrazolo[1,5-a]pyrimidine-3-carboxamide], the results for the pIC50 in test [1] and in test [2] were 7.91 and under 6.00, respectively.

For `O=C(NCCN1CCC(O)CC1)c1cnn2ccc(N3CCC[C@@H]3c3cc(F)ccc3F)nc12` [Example 170, 5-((R)-2-(2,5-difluorophenyl)pyrrolidin-1-yl)-N-(2-(4-hydroxypiperidin-1-yl)ethyl)pyrazolo[1,5-a]pyrimidine-3-carboxamide], the pIC50 in test [1] was 7.94.

In the case of `C[C@@H](O)[C@H](CO)NC(=O)c1cnn2ccc(N3CCC[C@@H]3c3cc(F)ccc3F)nc12` [Example 174, 5-((R)-2-(2,5-difluorophenyl)pyrrolidin-1-yl)-N-((2S,3R)-1,3-dihydroxybutan-2-yl)pyrazolo[1,5-a]pyrimidine-3-carboxamide], the pIC50 is 7.79 in test [1] and under 6.00 in test [2].

On to `C[C@H](O)[C@@H](CO)NC(=O)c1cnn2ccc(N3CCC[C@@H]3c3cc(F)ccc3F)nc12` [Example 176, 5-((R)-2-(2,5-difluorophenyl)pyrrolidin-1-yl)-N-((2R,3S)-1,3-dihydroxybutan-2-yl)pyrazolo[1,5-a]pyrimidine-3-carboxamide], for which the pIC50 in test [1] is 7.57; in test [2], under 6.00.
